One test deals with T1, Progesterone receptor (Homo sapiens, UniProt P06401).
T1 sequence (P06401 whole entry): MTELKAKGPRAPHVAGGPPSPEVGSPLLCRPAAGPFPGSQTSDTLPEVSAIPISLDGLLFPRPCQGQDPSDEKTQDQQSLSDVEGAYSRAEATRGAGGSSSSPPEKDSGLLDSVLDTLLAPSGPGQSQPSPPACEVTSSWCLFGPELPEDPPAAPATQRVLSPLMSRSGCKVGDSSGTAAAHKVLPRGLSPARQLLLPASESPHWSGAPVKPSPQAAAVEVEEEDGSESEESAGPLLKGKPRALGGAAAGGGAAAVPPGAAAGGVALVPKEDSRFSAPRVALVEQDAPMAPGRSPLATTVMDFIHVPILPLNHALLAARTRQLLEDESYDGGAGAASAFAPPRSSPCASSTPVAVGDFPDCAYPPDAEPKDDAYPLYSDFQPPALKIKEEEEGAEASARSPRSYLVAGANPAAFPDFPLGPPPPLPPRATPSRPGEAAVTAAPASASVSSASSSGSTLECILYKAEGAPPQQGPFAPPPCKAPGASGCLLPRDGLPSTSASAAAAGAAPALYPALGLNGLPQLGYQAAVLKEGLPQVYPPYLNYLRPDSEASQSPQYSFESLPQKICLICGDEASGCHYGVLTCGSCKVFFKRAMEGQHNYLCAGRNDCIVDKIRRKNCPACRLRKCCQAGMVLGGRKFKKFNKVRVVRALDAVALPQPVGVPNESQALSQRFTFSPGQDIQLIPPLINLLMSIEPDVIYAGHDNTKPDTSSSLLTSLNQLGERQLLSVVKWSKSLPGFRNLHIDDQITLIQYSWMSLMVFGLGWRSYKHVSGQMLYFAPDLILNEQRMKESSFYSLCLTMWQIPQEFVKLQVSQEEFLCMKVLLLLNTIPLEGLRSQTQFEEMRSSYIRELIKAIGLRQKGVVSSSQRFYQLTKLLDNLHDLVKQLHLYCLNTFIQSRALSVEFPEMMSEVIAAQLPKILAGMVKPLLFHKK
The test is classed as functional.

For a further test, the target named is Mu-type opioid receptor (Homo sapiens, UniProt P35372).
For test [1], the target named is Gamma-aminobutyric acid receptor subunit alpha-1/alpha-2/beta-2/gamma-2 (Homo sapiens, UniProt P14867+P18507+P47869+P47870). The test is classed as functional, cell-based.
For the next test, the target named is D(1A) dopamine receptor (Homo sapiens, UniProt P21728).
In test [2] the target is 5-hydroxytryptamine receptor 2A (Homo sapiens, UniProt P28223). The test is classed as functional, cell-based.

Data on three compounds can be found in ChEMBL document CHEMBL5291721, “A preclinical secondary pharmacology resource illuminates target-adverse drug reaction associations of marketed drugs” (Nat Commun, 2023).
Note: assay procedure not described here.

D(1A) dopamine receptor, sequence (P21728 whole entry): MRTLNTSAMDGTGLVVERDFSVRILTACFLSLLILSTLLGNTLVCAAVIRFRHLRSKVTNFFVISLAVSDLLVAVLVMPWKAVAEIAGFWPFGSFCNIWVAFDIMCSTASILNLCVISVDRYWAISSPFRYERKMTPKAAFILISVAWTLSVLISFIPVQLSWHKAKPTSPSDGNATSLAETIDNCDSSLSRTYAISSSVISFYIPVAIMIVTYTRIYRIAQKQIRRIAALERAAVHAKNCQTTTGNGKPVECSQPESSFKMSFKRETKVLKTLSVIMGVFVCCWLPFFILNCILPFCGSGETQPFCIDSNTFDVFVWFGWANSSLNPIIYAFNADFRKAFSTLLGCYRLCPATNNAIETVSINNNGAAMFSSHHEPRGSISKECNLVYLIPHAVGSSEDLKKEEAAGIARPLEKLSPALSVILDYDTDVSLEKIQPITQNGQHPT
Gamma-aminobutyric acid receptor subunit alpha-1/alpha-2/beta-2/gamma-2, sequence (P14867 whole entry): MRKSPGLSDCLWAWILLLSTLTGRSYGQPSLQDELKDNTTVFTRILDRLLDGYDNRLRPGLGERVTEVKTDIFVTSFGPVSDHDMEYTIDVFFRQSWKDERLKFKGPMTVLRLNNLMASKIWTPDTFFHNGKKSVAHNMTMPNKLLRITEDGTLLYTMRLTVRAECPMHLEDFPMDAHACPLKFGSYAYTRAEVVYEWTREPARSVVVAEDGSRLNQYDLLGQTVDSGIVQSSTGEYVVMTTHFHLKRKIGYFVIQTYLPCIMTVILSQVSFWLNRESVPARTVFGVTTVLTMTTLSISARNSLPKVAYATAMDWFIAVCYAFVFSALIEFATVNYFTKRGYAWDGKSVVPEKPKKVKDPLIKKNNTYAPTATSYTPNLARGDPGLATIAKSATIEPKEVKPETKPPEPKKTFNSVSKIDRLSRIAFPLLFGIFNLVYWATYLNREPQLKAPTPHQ
Gamma-aminobutyric acid receptor subunit alpha-1/alpha-2/beta-2/gamma-2, sequence (P47870 whole entry): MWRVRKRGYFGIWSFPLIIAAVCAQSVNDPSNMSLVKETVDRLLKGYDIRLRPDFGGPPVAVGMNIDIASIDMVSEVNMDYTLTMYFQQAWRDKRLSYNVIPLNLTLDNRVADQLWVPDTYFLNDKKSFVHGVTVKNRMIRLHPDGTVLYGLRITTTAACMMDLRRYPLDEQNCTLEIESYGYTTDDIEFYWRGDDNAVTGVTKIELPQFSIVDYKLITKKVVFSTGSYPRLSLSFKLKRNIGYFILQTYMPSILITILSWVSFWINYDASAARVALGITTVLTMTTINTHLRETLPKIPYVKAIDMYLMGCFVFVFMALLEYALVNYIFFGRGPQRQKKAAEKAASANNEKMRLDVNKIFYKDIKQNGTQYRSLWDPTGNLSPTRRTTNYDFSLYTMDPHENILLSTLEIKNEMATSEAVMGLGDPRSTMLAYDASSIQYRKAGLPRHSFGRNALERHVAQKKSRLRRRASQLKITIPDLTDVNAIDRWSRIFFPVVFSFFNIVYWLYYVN
Gamma-aminobutyric acid receptor subunit alpha-1/alpha-2/beta-2/gamma-2, sequence (P18507 whole entry): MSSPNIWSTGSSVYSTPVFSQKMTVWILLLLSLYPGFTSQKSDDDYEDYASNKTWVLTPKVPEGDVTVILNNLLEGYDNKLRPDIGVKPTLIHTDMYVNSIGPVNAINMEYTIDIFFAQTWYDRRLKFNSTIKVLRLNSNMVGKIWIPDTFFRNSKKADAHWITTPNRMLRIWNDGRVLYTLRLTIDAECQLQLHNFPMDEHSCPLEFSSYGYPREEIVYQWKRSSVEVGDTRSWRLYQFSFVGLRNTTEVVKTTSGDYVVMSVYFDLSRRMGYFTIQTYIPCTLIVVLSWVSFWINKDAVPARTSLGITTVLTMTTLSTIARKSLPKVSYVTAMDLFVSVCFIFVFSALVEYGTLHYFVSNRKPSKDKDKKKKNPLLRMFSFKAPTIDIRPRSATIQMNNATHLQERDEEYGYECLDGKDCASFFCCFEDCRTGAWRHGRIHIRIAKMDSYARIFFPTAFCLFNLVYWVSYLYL
Gamma-aminobutyric acid receptor subunit alpha-1/alpha-2/beta-2/gamma-2, sequence (P47869 whole entry): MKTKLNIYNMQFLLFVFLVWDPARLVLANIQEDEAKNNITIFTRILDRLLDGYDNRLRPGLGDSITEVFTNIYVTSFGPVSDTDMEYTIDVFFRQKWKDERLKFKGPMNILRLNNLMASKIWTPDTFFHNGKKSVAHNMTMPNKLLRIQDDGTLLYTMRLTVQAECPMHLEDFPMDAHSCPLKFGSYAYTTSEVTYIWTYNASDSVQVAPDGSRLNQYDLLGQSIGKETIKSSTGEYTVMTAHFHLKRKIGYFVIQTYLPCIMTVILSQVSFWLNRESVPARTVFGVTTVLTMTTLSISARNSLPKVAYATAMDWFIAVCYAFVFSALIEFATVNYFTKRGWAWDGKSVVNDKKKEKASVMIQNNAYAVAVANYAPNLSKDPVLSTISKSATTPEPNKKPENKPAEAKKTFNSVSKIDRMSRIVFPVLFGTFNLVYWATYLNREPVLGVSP
5-hydroxytryptamine receptor 2A, sequence (P28223 whole entry): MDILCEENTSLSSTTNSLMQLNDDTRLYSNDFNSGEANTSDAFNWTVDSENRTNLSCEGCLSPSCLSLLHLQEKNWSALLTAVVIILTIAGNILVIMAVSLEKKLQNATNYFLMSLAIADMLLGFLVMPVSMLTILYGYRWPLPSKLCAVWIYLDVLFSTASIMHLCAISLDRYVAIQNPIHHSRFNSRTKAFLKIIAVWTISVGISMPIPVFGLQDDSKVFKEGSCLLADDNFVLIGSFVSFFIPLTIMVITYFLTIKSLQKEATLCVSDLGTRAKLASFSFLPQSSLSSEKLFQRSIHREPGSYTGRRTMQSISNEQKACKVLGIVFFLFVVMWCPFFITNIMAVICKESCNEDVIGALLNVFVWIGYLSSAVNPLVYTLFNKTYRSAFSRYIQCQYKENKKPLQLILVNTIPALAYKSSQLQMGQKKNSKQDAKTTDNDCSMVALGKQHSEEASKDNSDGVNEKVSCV
Mu-type opioid receptor, sequence (P35372 whole entry): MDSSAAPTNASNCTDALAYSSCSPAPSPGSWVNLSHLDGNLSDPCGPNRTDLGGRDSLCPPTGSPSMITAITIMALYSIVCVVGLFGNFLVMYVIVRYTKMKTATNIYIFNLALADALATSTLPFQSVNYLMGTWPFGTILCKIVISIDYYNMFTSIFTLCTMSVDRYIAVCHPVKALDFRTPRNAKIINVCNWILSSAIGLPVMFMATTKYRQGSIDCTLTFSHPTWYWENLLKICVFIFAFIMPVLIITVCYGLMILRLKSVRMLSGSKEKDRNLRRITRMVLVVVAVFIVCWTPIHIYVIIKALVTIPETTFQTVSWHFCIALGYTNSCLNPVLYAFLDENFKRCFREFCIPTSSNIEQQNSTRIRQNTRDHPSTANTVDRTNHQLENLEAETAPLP

As for `CC[C@H]1CN2CCc3cc(OC)c(OC)cc3[C@@H]2C[C@@H]1C[C@H]1NCCc2cc(OC)c(OC)cc21` [EMETINE], the AC50 (in general, the concentration giving half of the maximal activity seen) was over 30 µM on Progesterone receptor, 18 µM at Mu-type opioid receptor, over 30 µM in test [1] and over 30 µM at D(1A) dopamine receptor.

With `Cc1cc(C)c(NC(=O)CN(CC(=O)O)CC(=O)O)c(C)c1Br` [MEBROFENIN], the AC50 (in test [2]; in test [1]; on D(1A) dopamine receptor) was over 30 µM in each case.

Regarding `Cc1oc(=O)oc1CN1CCN(c2cc3c(cc2F)c(=O)c(C(=O)O)c2n3C(C)S2)CC1` (stereo not given) [PRULIFLOXACIN], the AC50 (in test [2]; in test [1]; on D(1A) dopamine receptor) was over 30 µM in each case.
